What all share (type): functional, cell-based
The target of data set [1] is T1, Bile salt export pump (Homo sapiens, UniProt O95342). The data set is described as follows: TP_TRANSPORTER: inhibitory effect of typical BSEP inhibitors (Verapamil & Cyclosporin A) in SK-E2 cells (expressing BSEP).
The target in data set [2] is T1, Bile salt export pump. The data set is described as follows: TP_TRANSPORTER: increase in dihydrofluorescein intracellular accumulation (dihydrofluorescein: 1 uM) in SK-E2 cells (expressing BSEP). To be noted: for Activity: sk-e2.
Data set [3] addresses T1, Bile salt export pump. The data set can be described thus: TP_TRANSPORTER: increase in bodipy intracellular accumulation (Bodipy: 0.2 uM) in SK-E2 cells (expressing BSEP). The following applies: for Activity: human, sk-e2.

As usually defined, the IC50 is the concentration at which inhibition is half-maximal.

T1 sequence (O95342 whole entry): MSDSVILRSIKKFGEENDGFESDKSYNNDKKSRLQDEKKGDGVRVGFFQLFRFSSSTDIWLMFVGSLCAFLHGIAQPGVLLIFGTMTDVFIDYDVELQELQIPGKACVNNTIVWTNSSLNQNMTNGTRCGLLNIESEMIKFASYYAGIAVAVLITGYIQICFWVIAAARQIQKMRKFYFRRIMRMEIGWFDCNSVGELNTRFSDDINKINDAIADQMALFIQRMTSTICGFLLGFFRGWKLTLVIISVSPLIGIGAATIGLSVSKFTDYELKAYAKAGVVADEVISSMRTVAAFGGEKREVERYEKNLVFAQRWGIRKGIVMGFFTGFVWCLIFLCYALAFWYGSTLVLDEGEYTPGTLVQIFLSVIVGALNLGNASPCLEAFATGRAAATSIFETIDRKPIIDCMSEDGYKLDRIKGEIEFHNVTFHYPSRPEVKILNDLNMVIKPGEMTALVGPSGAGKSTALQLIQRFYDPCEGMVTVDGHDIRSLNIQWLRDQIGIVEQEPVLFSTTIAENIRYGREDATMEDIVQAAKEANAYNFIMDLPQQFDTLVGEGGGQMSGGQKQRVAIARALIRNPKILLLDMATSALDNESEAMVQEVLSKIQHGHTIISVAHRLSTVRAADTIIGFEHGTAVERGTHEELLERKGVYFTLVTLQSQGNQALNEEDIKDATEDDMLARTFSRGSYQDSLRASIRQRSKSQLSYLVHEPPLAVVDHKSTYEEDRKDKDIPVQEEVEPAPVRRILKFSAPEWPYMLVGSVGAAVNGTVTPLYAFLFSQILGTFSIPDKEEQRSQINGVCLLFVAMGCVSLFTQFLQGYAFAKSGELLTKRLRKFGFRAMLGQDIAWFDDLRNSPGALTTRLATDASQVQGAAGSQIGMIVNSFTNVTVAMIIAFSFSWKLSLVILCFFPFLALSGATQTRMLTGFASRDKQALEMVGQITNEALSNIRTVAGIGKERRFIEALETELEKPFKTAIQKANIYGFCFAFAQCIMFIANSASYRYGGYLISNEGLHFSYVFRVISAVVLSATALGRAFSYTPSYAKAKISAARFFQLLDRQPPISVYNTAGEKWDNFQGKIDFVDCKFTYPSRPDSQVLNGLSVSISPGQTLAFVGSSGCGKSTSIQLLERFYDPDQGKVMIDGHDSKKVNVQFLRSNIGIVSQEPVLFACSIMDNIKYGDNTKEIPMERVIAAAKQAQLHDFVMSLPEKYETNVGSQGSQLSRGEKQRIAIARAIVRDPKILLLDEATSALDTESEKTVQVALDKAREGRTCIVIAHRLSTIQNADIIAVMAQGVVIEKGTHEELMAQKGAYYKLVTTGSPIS

As to `CN(C)c1ccc2c(-c3ccc(CCl)cc3)c3ccc(=[N+](C)C)cc-3oc2c1.[Br-]` [TETRAMETHYLROSAMINE], the Activity result in data set [1] was “is not a substrate [-]”.

Regarding `CC(C)/N=c1\cc2n(-c3ccc(Cl)cc3)c3ccccc3nc-2cc1Nc1ccc(Cl)cc1` [CLOFAZIMINE], the IC50 in data set [2] came to 28.7 µM.

Turning to `CN/C(=N/CCSCc1nc[nH]c1C)NC#N` [CIMETIDINE], the Activity entry in data set [2] and in data set [3] was “is not an inhibitor [-]” throughout. Consider `CC[n+]1cc(N(C)C)cc2ccc(/C=C/C=C/c3ccc(N(C)C)cc3)cc21`, for which the Activity entry in data set [1] is “is not a substrate [-]”.

Turning to `O=C(O)c1ccccc1C1c2ccc(O)cc2Oc2cc(O)ccc21` [FLUORESCIN], in data set [1], the Activity entry was “substrate [+]”. Regarding `C[C@H](CCC(=O)NCCS(=O)(=O)O)[C@H]1CC[C@H]2[C@@H]3CC[C@@H]4C[C@H](O)CC[C@]4(C)[C@H]3CC[C@]12C` [TAUROLITHOCHOLIC ACID], in data set [2], the IC50 came to 189 µM. The Activity entry in data set [3] is “is not an inhibitor [-]”. In the case of `CC(=O)Oc1cc2c(cc1Cl)C(c1c(C(=O)O)cccc1C(=O)O)c1cc(Cl)c(OC(C)=O)cc1O2.CC(=O)Oc1cc2c(cc1Cl)C(c1cc(C(=O)O)ccc1C(=O)O)c1cc(Cl)c(OC(C)=O)cc1O2`, the Activity result in data set [1] is “is not a substrate [-]”. In the case of `O=C(CI)Nc1ccc(-c2c3ccc(=O)cc-3oc3cc(O)ccc23)c(C(=O)O)c1` [5-Iodoacetamidofluorescein], the Activity entry in data set [1] was “is not a substrate [-]”. For the compound `CC[C@]1(O)C[C@@H]2CN(CCc3c([nH]c4ccccc34)[C@@](C(=O)OC)(c3cc4c(cc3OC)N(C)[C@H]3[C@@](O)(C(=O)OC)[C@H](OC(C)=O)[C@]5(CC)C=CCN6CC[C@]43[C@@H]65)C2)C1` [VINBLASTINE], the IC50 turned out to be 62 µM in data set [2] and 115 µM in data set [3].

As for `COC(=O)c1ccccc1-c1c2ccc(=N)cc-2oc2cc(N)ccc12.Cl` [RHODAMINE123], the Activity entry in data set [1] was “is not a substrate [-]”. `CN(CCOC(=O)CI)c1ccc([N+](=O)[O-])c2nonc12`: in data set [1], the Activity result is “is not a substrate [-]”. With `CO[C@H]1/C=C/O[C@@]2(C)Oc3c(C)c(O)c4c(O)c(cc(O)c4c3C2=O)NC(=O)/C(C)=C\C=C\[C@H](C)[C@H](O)[C@@H](C)[C@@H](O)[C@@H](C)[C@H](OC(C)=O)[C@@H]1C` [RIFAMYCIN], the IC50 in data set [2] came to 12.2 µM; in data set [3], 206 µM. Turning to `C=C[C@H]1C[N@@]2CC[C@H]1C[C@@H]2[C@@H](O)c1ccnc2ccc(OC)cc12` [QUINIDINE], the Activity result in data set [2] was “is not an inhibitor [-]”.

On to `CC(=O)OCOC(=O)CN(CC(=O)OCOC(C)=O)Cc1c(OC(C)=O)ccc2c1Oc1c(ccc(OC(C)=O)c1CN(CC(=O)OCOC(C)=O)CC(=O)OCOC(C)=O)C21OC(=O)c2ccccc21`, for which the Activity entry in data set [1] was “is not a substrate [-]”. The same measure, in the same setting: the value for `O=C1OC2(c3ccc(O)cc3Oc3cc(O)ccc32)c2ccccc21` [FLUORESCEIN] was “substrate [+]”; that for `CC(=O)OCOC(=O)CN(CC(=O)OCOC(C)=O)c1ccc(C)cc1OCCOc1cc(-c2c3cc(Cl)c(=O)cc-3oc3cc(OCOC(C)=O)c(Cl)cc23)ccc1N(CC(=O)OCOC(C)=O)CC(=O)OCOC(C)=O` was “is not a substrate [-]”; that for `CCOc1ccc(-c2nc3cc(-c4nc5cc(N6CCN(C)CC6)ccc5[nH]4)ccc3[nH]2)cc1` was “is not a substrate [-]”. Consider `COC(=O)[C@H]1[C@H]2C[C@@H]3c4[nH]c5cc(OC)ccc5c4CCN3C[C@H]2C[C@@H](OC(=O)c2cc(OC)c(OC)c(OC)c2)[C@@H]1OC` [RESERPINE], for which the IC50 in data set [2] came to 10.2 µM. Moreover, the Activity entry in data set [3] was “is not an inhibitor [-]”. Regarding `O=C(O[C@@H]1Cc2c(O)cc(O)cc2O[C@@H]1c1cc(O)c(O)c(O)c1)c1cc(O)c(O)c(O)c1` [EPIGALOCATECHIN GALLATE], in data set [2], the Activity result is “is not an inhibitor [-]”. For the same compound, the concentration for half-maximal inhibition (IC50) in data set [3] is 214 µM. Turning to `COc1cccc2c1C(=O)c1c(O)c3c(c(O)c1C2=O)C[C@@](O)(C(C)=O)C[C@@H]3O[C@H]1C[C@H](N)[C@H](O)[C@H](C)O1` [DAUNORUBICIN], in data set [1], the Activity result was “is not a substrate [-]”. On to `Cc1c(C)c2c(c(C)c1O)CCC(C)(COc1ccc(CC3SC(=O)NC3=O)cc1)O2` (centres undefined) [TROGLITAZONE], for which, in data set [2], the IC50 was determined as 66.4 µM. On to `CN(C)CCCN1c2ccccc2Sc2ccc(Cl)cc21` [CHLORPROMAZINE], for which the IC50 in data set [2] worked out at 33.5 µM; in data set [3], 30.9 µM.

Turning to `COc1cccc2c1C(=O)c1c(O)c3c(c(O)c1C2=O)C[C@@](O)(C(=O)CO)C[C@@H]3O[C@H]1C[C@H](N)[C@H](O)[C@H](C)O1` [DOXORUBICIN], the Activity result in data set [1] was “is not a substrate [-]”.

For `CCN1C(=C/C=C/c2n(CC)c3cc(Cl)c(Cl)cc3[n+]2CC)N(CC)c2cc(Cl)c(Cl)cc21.[I-]`, the Activity result in data set [1] is “is not a substrate [-]”. `CC(C)[C@@H]1NC(=O)[C@H](C)OC(=O)[C@@H](C(C)C)NC(=O)[C@@H](C(C)C)OC(=O)[C@H](C(C)C)NC(=O)[C@H](C)OC(=O)[C@@H](C(C)C)NC(=O)[C@@H](C(C)C)OC(=O)[C@H](C(C)C)NC(=O)[C@H](C)OC(=O)[C@@H](C(C)C)NC(=O)[C@@H](C(C)C)OC1=O` [VALINOMYCIN]: the IC50 in data set [2] came to 7.2 µM. For the same compound, the Activity entry in data set [3] is “is not an inhibitor [-]”. Take `Cc1cc(C)n2c1C=C1C=CC(CCCCCCCCCCCC(=O)OC3CC[C@@]4(C)C(=CC[C@@H]5[C@@H]4CC[C@]4(C)C(C(C)CCCC(C)C)CC[C@@H]54)C3)=[N+]1[B-]2(F)F` (some centres undefined) [CHOLESTERYL BODIPY FL C12]: in data set [1], the Activity result was “is not a substrate [-]”.
